Results from PubChem BioAssay (NCI).
Where “and” joins values, the source holds several entries; their conditions need not be identical. Identical values can stand only once.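 Results reflect a 48-hour exposure of cells in 96-well plates to compound at five concentrations. Here, GI50 denotes the concentration required for 50% inhibition of growth. TGI marks complete inhibition of growth.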

How the values were obtained:
Experiment in all cases: NCI anticancer screen, dose series, 48 h
[1] = tested on: SW-620 colon
[2] = tested on: HOP-62 NSCLC
[3] = tested on: COLO 205 colon
[4] = tested on: A549 NSCLC
[5] = tested on: SNB-19 CNS
[6] = tested on: OVCAR-4 ovarian
[7] = tested on: EKVX NSCLC
[8] = tested on: HL-60(TB) leukemia
[9] = tested on: OVCAR-5 ovarian
[10] = tested on: DU-145 prostate
[11] = tested on: HS 578T breast
[12] = tested on: UACC-257 melanoma
[13] = tested on: SF-268 CNS
[14] = tested on: 786-0 renal
[15] = tested on: SN12C renal
[16] = tested on: HCT-116 colon
[17] = tested on: SF-539 CNS
[18] = tested on: HT29 colon
[19] = tested on: M14 melanoma
[20] = tested on: SK-MEL-28 melanoma
[21] = tested on: MCF7 breast
[22] = tested on: NCI/ADR-RES ovarian
[23] = tested on: UACC-62 melanoma
[24] = tested on: SK-MEL-2 melanoma
[25] = tested on: SK-MEL-5 melanoma
[26] = tested on: RXF 393 renal
[27] = tested on: HCT-15 colon
[28] = tested on: A498 renal
[29] = tested on: SNB-75 CNS
[30] = tested on: K-562 leukemia
[31] = tested on: NCI-H522 lung
[32] = tested on: CCRF-CEM leukemia
[33] = tested on: MDA-MB-231 breast
[34] = tested on: OVCAR-8 ovarian
[35] = tested on: T-47D breast
[36] = tested on: NCI-H460 lung
[37] = tested on: ACHN renal
[38] = tested on: NCI-H226 lung
[39] = tested on: CAKI-1 renal
[40] = tested on: HCC-2998 colon
[41] = tested on: SK-OV-3 ovarian
[42] = tested on: IGROV1 ovarian
[43] = tested on: OVCAR-3 ovarian
[44] = tested on: MDA-MB-435
[45] = tested on: SR leukemia
[46] = tested on: HOP-92 NSCLC
[47] = tested on: PC-3 prostate
[48] = tested on: SF-295 CNS
[49] = tested on: UO-31 renal
[50] = tested on: NCI-H23 lung
[51] = tested on: KM12 colon
[52] = tested on: MALME-3M melanoma
[53] = tested on: MOLT-4 leukemia
[54] = tested on: BT-549 breast
[55] = tested on: TK-10 renal
[56] = tested on: U251 CNS
[57] = tested on: LOX IMVI melanoma
[58] = tested on: RPMI-8226 leukemia
[59] = tested on: MDA-N

## CC1=CC(=O)C=CC1=O
[1]
  GI50: 5.31 µM
  TGI: 20.8 µM
[2]
  GI50: 35.9 µM and 25.3 µM
  TGI: 75.3 µM
[3]
  GI50: 13.4 µM and 12.1 µM
  TGI: 27.3 µM and 25 µM
[4]
  GI50: 79.4 µM and 24.9 µM
  TGI: 66.8 µM
[5]
  GI50: 36.1 µM
  TGI: 89.4 µM
[6]
  GI50: 15.1 µM
  TGI: 30.4 µM
[7]
  GI50: 17 µM
  TGI: 39.6 µM
[8]
  GI50: 2.37 µM and 3.51 µM
[9]
  GI50: 21.4 µM
  TGI: 39.5 µM
[10]
  GI50: 17.3 µM and 17.8 µM
  TGI: 31 µM and 32.4 µM
[11]
  GI50: 14.4 µM and 24.9 µM
  TGI: 47.1 µM and 246 µM
[12]
  GI50: 35.9 µM and 17.4 µM
  TGI: 33.9 µM
[13]
  GI50: 16.5 µM
  TGI: 31.2 µM
[14]
  GI50: 19.3 µM and 19.1 µM
  TGI: 33.8 µM and 34.2 µM
[15]
  GI50: 28.7 µM
[16]
  GI50: 14.8 µM and 2.97 µM
  TGI: 29.8 µM
[17]
  GI50: 29.3 µM and 17 µM
  TGI: 31.4 µM
[18]
  GI50: 16.4 µM and 26.9 µM
  TGI: 40.9 µM and 69.6 µM
[19]
  GI50: 22.7 µM and 20.5 µM
  TGI: 67.1 µM and 48.5 µM
[20]
  GI50: 16.9 µM and 17.9 µM
  TGI: 30.8 µM and 32.6 µM
[21]
  GI50: 14.7 µM and 15.4 µM
  TGI: 34.5 µM and 41.4 µM
[22]
  GI50: 20.6 µM and 24 µM
  TGI: 43 µM and 64.4 µM
[23]
  GI50: 28.2 µM and 13.7 µM
  TGI: 27.2 µM
[24]
  GI50: 50.7 µM and 23.8 µM
  TGI: 66.3 µM
[25]
  GI50: 29.3 µM and 13.4 µM
  TGI: 26.3 µM
[26]
  GI50: 16.8 µM and 12.1 µM
  TGI: 31.5 µM and 27.4 µM
[27]
  GI50: 19.1 µM and 13.2 µM
  TGI: 38 µM and 29 µM
[28]
  GI50: 30.6 µM and 51.5 µM
  TGI: 96 µM and 144 µM
[29]
  GI50: 3.02 µM and 11.5 µM
  TGI: 24.8 µM
[30]
  GI50: 3 µM and 4.38 µM
[31]
  GI50: 11.2 µM and 1.67 µM
  TGI: 24 µM and 4.1 µM
[32]
  GI50: 2.73 µM
  TGI: 10.5 µM
[33]
  GI50: 16.2 µM
  TGI: 30.4 µM
[34]
  GI50: 17.7 µM
  TGI: 41.4 µM
[35]
  GI50: 11.9 µM and 2.54 µM
  TGI: 36.1 µM and 6.78 µM
[36]
  GI50: 32.8 µM and 22.3 µM
  TGI: 53.4 µM
[37]
  GI50: 15.9 µM and 2.94 µM
  TGI: 29.4 µM and 10.1 µM
[38]
  GI50: 20.4 µM and 33.1 µM
  TGI: 48.6 µM and 240 µM
[39]
  GI50: 15.1 µM and 15.3 µM
  TGI: 28.4 µM and 29.8 µM
[40]
  GI50: 13.2 µM and 18.6 µM
  TGI: 26.2 µM and 35.4 µM
[41]
  GI50: 37.5 µM and 25.5 µM
  TGI: 93.8 µM
[42]
  GI50: 18.1 µM and 18.2 µM
  TGI: 43 µM
[43]
  GI50: 3.96 µM
  TGI: 13.3 µM
[44]
  GI50: 12.3 µM
  TGI: 25.4 µM
[45]
  GI50: 1.63 µM and 9.34 µM
[46]
  GI50: 16.7 µM
  TGI: 33.4 µM
[47]
  GI50: 15.7 µM
  TGI: 39.4 µM
[48]
  GI50: 50.3 µM and 22.7 µM
  TGI: 64.3 µM
[49]
  GI50: 12.7 µM and 4.8 µM
  TGI: 26 µM and 17.6 µM
[50]
  GI50: 26.6 µM and 20.5 µM
  TGI: 60 µM
[51]
  GI50: 14.1 µM and 16.5 µM
  TGI: 27.7 µM and 32.1 µM
[52]
  GI50: 13.1 µM and 13.7 µM
  TGI: 29.7 µM and 27.8 µM
[53]
  GI50: 3.29 µM and 3.22 µM
[54]
  GI50: 16.2 µM and 14.9 µM
  TGI: 40 µM and 28.3 µM
[55]
  GI50: 20.8 µM and 16.9 µM
  TGI: 36.4 µM and 30.7 µM
[56]
  GI50: 57.4 µM and 15.4 µM
  TGI: 28.9 µM
[57]
  GI50: 17.9 µM and 14.4 µM
  TGI: 42.6 µM and 28 µM
[58]
  GI50: 5.11 µM and 3.32 µM
  TGI: 39.9 µM and 102 µM

## CC(CC[C@@]1(C)C(=O)CCC2O[C@]21C)[C@H]1C[C@@H](c2ccoc2)OC1=O (stereo not given in full)
[1]
  TGI: 91.8 µM
[2]
  TGI: > 100 µM
[3]
  TGI: 52.1 µM
[4]
  TGI: > 100 µM
[5]
  TGI: > 100 µM
[6]
  TGI: 55.3 µM
[7]
  TGI: > 100 µM
[8]
  TGI: 47.6 µM
[9]
  TGI: > 100 µM
[10]
  TGI: > 100 µM
[11]
  TGI: > 100 µM
[12]
  TGI: > 100 µM
[13]
  TGI: 94.6 µM
[14]
  TGI: 63.1 µM
[15]
  TGI: 79.9 µM
[16]
  TGI: 38.4 µM
[17]
  TGI: 69.1 µM
[18]
  TGI: > 100 µM
[19]
  TGI: > 100 µM
[20]
  TGI: 70.8 µM
[21]
  TGI: > 100 µM
[59]
  TGI: > 100 µM
[22]
  TGI: > 100 µM
[23]
  TGI: > 100 µM
[24]
  TGI: > 100 µM
[25]
  TGI: > 100 µM
[26]
  TGI: 39.8 µM
[27]
  TGI: > 100 µM
[28]
  TGI: > 100 µM
[30]
  TGI: 51 µM
[31]
  TGI: 22.2 µM
[32]
  TGI: 61.3 µM
[35]
  TGI: > 100 µM
[36]
  TGI: > 100 µM
[37]
  TGI: 48 µM
[38]
  TGI: > 100 µM
[39]
  TGI: 71.8 µM
[40]
  TGI: > 100 µM
[41]
  TGI: > 100 µM
[42]
  TGI: > 100 µM
[43]
  TGI: 66.1 µM
[44]
  TGI: > 100 µM
[45]
  TGI: > 100 µM
[46]
  TGI: 86.9 µM
[47]
  TGI: > 100 µM
[48]
  TGI: > 100 µM
[49]
  TGI: 35.2 µM
[50]
  TGI: > 100 µM
[51]
  TGI: > 100 µM
[52]
  TGI: 81.3 µM
[53]
  TGI: 84.7 µM
[55]
  TGI: 94.4 µM
[56]
  TGI: > 100 µM
[57]
  TGI: 48.2 µM
[58]
  TGI: 88.7 µM

## CCOC1=NC(O)c2cccn2-c2sccc21 (stereo not given)
[1]
  TGI: > 100 µM
[2]
  TGI: > 100 µM
[3]
  TGI: > 100 µM
[4]
  TGI: > 100 µM
[5]
  TGI: > 100 µM
[6]
  TGI: > 100 µM
[9]
  TGI: > 100 µM
[10]
  TGI: > 100 µM
[13]
  TGI: > 100 µM
[14]
  TGI: > 100 µM
[15]
  TGI: > 100 µM
[16]
  TGI: > 100 µM
[17]
  TGI: > 100 µM
[18]
  TGI: > 100 µM
[19]
  TGI: > 100 µM
[20]
  TGI: > 100 µM
[21]
  TGI: > 100 µM
[59]
  TGI: > 100 µM
[22]
  TGI: > 100 µM
[23]
  TGI: > 100 µM
[24]
  TGI: > 100 µM
[25]
  TGI: > 100 µM
[26]
  TGI: > 100 µM
[27]
  TGI: > 100 µM
[28]
  TGI: > 100 µM
[30]
  TGI: > 100 µM
[31]
  TGI: > 100 µM
[33]
  TGI: > 100 µM
[34]
  TGI: > 100 µM
[35]
  TGI: > 100 µM
[36]
  TGI: > 100 µM
[37]
  TGI: > 100 µM
[39]
  TGI: > 100 µM
[40]
  TGI: > 100 µM
[41]
  TGI: > 100 µM
[43]
  TGI: > 100 µM
[44]
  TGI: > 100 µM
[45]
  TGI: > 100 µM
[46]
  TGI: > 100 µM
[47]
  TGI: > 100 µM
[48]
  TGI: > 100 µM
[49]
  TGI: > 100 µM
[50]
  TGI: > 100 µM
[51]
  TGI: > 100 µM
[52]
  TGI: > 100 µM
[53]
  TGI: > 100 µM
[55]
  TGI: > 100 µM
[56]
  TGI: > 100 µM
[58]
  TGI: > 100 µM
